From patent publication US10232002B1, “Oncolytic HSV1 vectors and methods of using the same” (priority 2012, dated 2019) come the findings set out here.

In the test the test system is U87ΔEGFR glioma cells.

With `Cn1nnc2c(C(N)=O)ncn2c1=O` [TMZ, temozolomide], the EC30 dose is 66 µM.
